# Measured values published in patent US12624068B2, “Exon skipping by peptide nucleic acid derivatives” (OliPass Corporation, priority 2016, dated 2026).
# [C(1O2)] = modified PNA monomer acting as cytosine, C(pOq) type, 1O2; [A(5)] = modified PNA monomer acting as adenine, A(p) type, p=5; [G(5)] = modified PNA monomer acting as guanine, G(p) type, p=5; {Fethoc} = N-terminal Fethoc cap; {NH2} = C-terminal amide
# System: sodium ion current in rat DRG cells
# Assay: CoroNa assay of sodium current in rat L5 DRG neuronal cells
# Format: cell-based
# Details: rat L5 DRG cells without L5/L6 ligation, 30 hrs
# Description: “SCN-ASO 27” was evaluated for its ability to inhibit the sodium ion current in rat DRG (dorsal root ganglion) cells using “CoroNa Green” as follows.
# [SNL Surgery by L5/L6 Ligation] In Day 0, 6 weeks old male SD rats were anesthetized with zoletil/rompun. Then the L5 and L6 spinal nerve (left side) were exposed and tightly ligated. The muscle and skin were closed and clipped by due aseptic procedures. The rats were sporadically sensitized by von Frey scoring over a period of 4 weeks.
# [Preparation of DRG Neuronal Cells] In Day 31, a rat showing a low von Frey score was sacrificed to extract both the left (ligated side) and the right (non-ligated side) DRG. […]
# [ASO Treatment & CoroNa Assay] […] The culture dish was mounted on a fluorescence microscope equipped with a CCD camera to continuously capture the green fluorescent images of the cells. The cells were acutely treated with 10 mM NaCl, and then the changes in the cellular fluorescent intensity were digitally recorded over a period of 300 sec. […] The fluorescence intensities from each individual cell were traced at a resolution of a second. The traces of the intracellular fluorescence intensities from individual cells were averaged using ImageJ program (version 1.50i, NIH), and the average traces are provided in FIGS. 33A and 33B for the cells with “L5/L6 ligation” and without “L5/L6 ligation”, respectively. […]
substance,measurement,setting,value
"Fethoc-AA(5)G-TG(5)T-A(5)CC(1O2)-TA(5)A-A(5)C-NH2 (AAGTGTACCTAAAC; splice-switching; all peptide nucleic acid (PNA), [A(5)] at 2, 7, 11, 13, [G(5)] at 5, [C(1O2)] at 9, 5' {Fethoc}, 3' {NH2}; peptide nucleic acid written N to C) [SCN-ASO 27]",decrease in fluorescence intensity (CoroNa),1 aM,~50%
same,decrease in fluorescence intensity (CoroNa),100 zM,no decrease
